Test results from patent publication US20200207734A1, “HETEROCYCLIC COMPOUND AND USE THEREOF” (Takeda Pharmaceutical Company Limited, priority 2017, published 2020).

Biological target: T1, human orexin type 2 receptor (Homo sapiens, UniProt O43614)
T1 construct: human orexin type 2 receptor cDNA was inserted into pcDNA3.1(+) plasmid vector (Invitrogen); expressed in transfected cells
T1 sequence (O43614 1-444): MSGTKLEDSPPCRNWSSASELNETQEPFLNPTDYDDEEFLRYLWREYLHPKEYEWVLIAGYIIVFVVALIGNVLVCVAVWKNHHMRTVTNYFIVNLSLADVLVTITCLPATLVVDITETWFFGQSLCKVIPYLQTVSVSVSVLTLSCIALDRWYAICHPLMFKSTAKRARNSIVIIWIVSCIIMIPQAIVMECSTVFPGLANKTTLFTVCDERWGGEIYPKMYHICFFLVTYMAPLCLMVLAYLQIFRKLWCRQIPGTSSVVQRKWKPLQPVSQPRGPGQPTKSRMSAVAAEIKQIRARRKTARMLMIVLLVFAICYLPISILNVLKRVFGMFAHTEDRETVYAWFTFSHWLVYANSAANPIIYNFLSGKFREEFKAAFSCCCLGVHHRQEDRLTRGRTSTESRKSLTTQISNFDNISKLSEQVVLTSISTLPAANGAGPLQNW
Assay: Measurement of orexin type 2 receptor agonist activity (calcium fluorescence, CHO cells expressing hOX2R)
Format: cell-based
Conditions: test compound 3 μM; CHO cells expressing human OX2 receptor; DMSO = 0%, orexin A (human) = 100%
Procedure, shortened: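 CHO-dhfr cells stably expressing hOX2R, loaded with Fluo-4 AM in HBSS/20 mM HEPES/0.1% BSA with probenecid, then given test compound. Calcium fluorescence was read for about 2 min 40 sec. Activity (%) was scaled between DMSO (0%) and 10 nM final human orexin A (100%).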

Row | SMILES | OX2R agonist activity (3 μM, %)
1 | CCNC(=O)N1CCC[C@H](NS(C)(=O)=O)[C@@H]1Cc1cccc(-c2ccccc2)c1 (relative stereo) [Example 3, cis-2-(biphenyl-3-ylmethyl)-N-ethyl-3-((methylsulfonyl)amino)piperidine-1-carboxamide] | 101%
2 | CC(C)(O)C(=O)N1CC[C@H](NS(C)(=O)=O)[C@@H]1Cc1cccc(-c2cc(F)cc(Cl)c2)c1F [Example 428, N-((2S,3S)-2-((3′-chloro-2,5′-difluorobiphenyl-3-yl)methyl)-1-(2-hydroxy-2-methylpropanoyl)pyrrolidin-3-yl)methanesulfonamide] | 102%
3 | CS(=O)(=O)N[C@H]1CCN(C(=O)C2CCC2)[C@H]1Cc1cc(F)cc(-c2cccc(F)c2)c1 (relative stereo) [Example 300, N-(cis-1-(cyclobutylcarbonyl)-2-((3′,5-difluorobiphenyl-3-yl)methyl)pyrrolidin-3-yl)methanesulfonamide] | 99%
4 | CS(=O)(=O)N[C@H]1CCN(C(=O)N2CCC2)[C@H]1Cc1csc(-c2cc(F)cc(F)c2)n1 [Example 340, N-((2S,3S)-1-(azetidin-1-ylcarbonyl)-2-((2-(3,5-difluorophenyl)-1,3-thiazol-4-yl)methyl)pyrrolidin-3-yl)methanesulfonamide] | 103%
5 | CS(=O)(=O)N[C@H]1CCN(C(=O)C2CC2)[C@H]1Cc1cccc(-c2ccccc2)c1 (relative stereo) [Example 206, N-(cis-2-(biphenyl-3-ylmethyl)-1-(cyclopropylcarbonyl)pyrrolidin-3-yl)methanesulfonamide] | 94%
6 | CS(=O)(=O)N[C@H]1CCN(C(=O)C2(C#N)CCC2)[C@H]1Cc1cccc(-c2cccc(F)c2)c1 [Example 346, N-((2S,3S)-1-((1-cyanocyclobutyl)carbonyl)-2-((3′-fluorobiphenyl-3-yl)methyl)pyrrolidin-3-yl)methanesulfonamide] | 107%
7 | CCCS(=O)(=O)N[C@H]1CCCN(C(=O)OC(C)C)[C@H]1Cc1cccc(-c2ccccc2)n1 (relative stereo) [Example 173, isopropyl cis-2-((6-phenylpyridin-2-yl)methyl)-3-((propylsulfonyl)amino)piperidine-1-carboxylate] | 68%
8 | CC(C)OC(=O)N1CCC[C@H](NS(C)(=O)=O)[C@@H]1Cc1cccc(-c2cc(F)ccc2F)n1 (relative stereo) [Example 100, isopropyl cis-2-((6-(2,5-difluorophenyl)pyridin-2-yl)methyl)-3-((methylsulfonyl)amino)piperidine-1-carboxylate] | 107%

The remaining lines, values ahead:

Row | OX2R agonist activity (3 μM, %) | SMILES
9 | 99% | CS(=O)(=O)N[C@H]1CCN(C(=O)C2CCO2)[C@H]1Cc1cccc(-c2cc(F)cc(F)c2)c1F (stereo partly drawn) [Example 441, N-{(2S,3S)-1-(oxetane-2-carbonyl)-2-[(2,3′,5′-trifluoro[1,1′-biphenyl]-3-yl)methyl]pyrrolidin-3-yl}methanesulfonamide]
10 | 101% | O=C(N1CCC1)N1CC[C@H](NS(=O)(=O)CF)[C@@H]1Cc1cccc(-c2cccc(F)c2)c1F [Example 467, N-{(2S,3S)-1-(azetidine-1-carbonyl)-2-[(2,3′-difluoro[1,1′-biphenyl]-3-yl)methyl]pyrrolidin-3-yl}-1-fluoro-methanesulfonamide]
11 | 92% | O=C(N1CCC1)N1CC[C@H](NS(=O)(=O)CF)[C@@H]1Cc1cccc(-c2ccccc2)c1 [Example 460, N-{(2S,3S)-1-(azetidine-1-carbonyl)-2-[([1,1′-biphenyl]-3-yl)methyl]pyrrolidin-3-yl}-1-fluoromethanesulfonamide]
12 | 99% | CCS(=O)(=O)N[C@H]1CCN(C(=O)C(C)(C)O)[C@H]1Cc1cccc(-c2cc(F)cc(Cl)c2)c1F [Example 437, N-((2S,3S)-2-((3′-chloro-2,5′-difluorobiphenyl-3-yl)methyl)-1-(2-hydroxy-2-methylpropanoyl)pyrrolidin-3-yl)ethanesulfonamide]
